Reference: US12221432B2, “Estrogen receptor antagonist” (CHIA TAI TIANQING PHARMACEUTICAL GROUP CO., LTD., priority 2018, dated 2025)
Where a name gives a salt, the structure may show the parent alone.

System: P-gp (human MDR1)
Assay: MDR1-MDCK two-way permeability assay
Type: in vitro ADME, canine
Conditions: dog
Excerpt: In this study, the MDR1-MDCKII cell line authorized by the Piet Borst Laboratory of the Netherlands Cancer Institute was used as the in vitro model. It is a Madin-Darby canine kidney cell transfected with human multiple drug resistance gene (MDR1). The cells can stably express the efflux transporter P-gp, so it is suitable for screening P-gp substrates or inhibitors and predicting the permeability of the compounds through barriers with high efflux effects in the duodenum, blood-brain barrier, […] and kidney units, etc. This study was intended to use MDR1-MDCK II cells for investigating the two-way permeability of the test compounds through the MDR1-MDCK II cell model.
Procedures: The standard conditions are as follows: • Test concentration: 2 μM (DMSO≤1%); • Replicate: n=2; • Direction: Two-way transport, including two directions: A→B and B→A; • Incubation time: single time point, 2.5 hours; • Transport buffer: HBSS buffer containing 10 mM Hepes, pH 7.4; Incubation condition: 37° C., 5% CO2.
After the incubation, sample solutions at the dosing end and the receiving end were collected and mixed with the cold acetonitrile solution containing the internal standard immediately. LC/MS/MS method was used to analyze the concentration of the test compounds in all samples (including the initial dosing solution, the dosing end samples and the receiving end samples). The apparent permeability coefficient, efflux ratio and other parameters were calculated.

- Papp A→B at 2.5 h, 2 μM (MDCK-MDR1, A-B, pH 7.4): 0.44 ×10⁻⁶ cm/s
- Papp B→A at 2.5 h, 2 μM (MDCK-MDR1, B-A, pH 7.4): 1.93 ×10⁻⁶ cm/s
- efflux ratio at 2.5 h, 2 μM (MDCK-MDR1, pH 7.4, B-A/A-B): 4.39
SMILES: CC/C(=C(/c1ccc(OCCNC/C=C/C(=O)N(C)C)nc1)c1[nH]c2ccccc2c1Cl)c1ccccc1 [Compound 3 monohydrochloride]
